Earlier results as cited in patent US4386074A, “LRF Antagonists” (The Salk Institute for Biological Studies, priority 1981, dated 1983).
[ ]: non-standard residue; d: D form. pGlu = O=C1CC[C@@H](C(=O)O)N1

Test system: release of LH and other gonadotropins by the pituitary gland
Conditions: D-Ala6 versus Gly6 des-His2 peptide

Substance: [pGlu]WSY[dA]LRPG-NH2
- potency as inhibitor of the release of gonadotropins relative to the same peptide with Gly in the 6-position: 4 times
